In patent US20160206620A1, “PURIN DERIVATIVES FOR USE IN THE TREATMENT OF FAB-RELATED DISEASES” (Boehringer Ingelheim International GmbH, priority 2008, published 2016):

Columns and labels:
[1] = 2 h postprandial blood glucose excursions in patients with type 2 diabetes; assay type: in vivo, human; conditions: already on Day 1, doses ≧2.5 mg
Description: […]. […] […]. […] […].

[2] = system: ob/ob mice; assay: Wound healing of excisional wounds in ob/ob mice (histology, Ly6G staining); assay type: in vivo, mouse; conditions: 3 mg/kg daily
Description: The ob/ob mice have been used and are accepted as experimental model for diabetes-impaired wound healing. These animals suffer from severe diabetes and obesity syndromes which show similar characteristics like in the human situation (e.g. obesity, insulin resistance). Insulin and diet reduce hyperglycemia in obese mice just they as they do in obese and diabetic subjects, but neither improves healing in these animals as has been shown recently.
(§1) Female C57BI/6J-ob/ob mice (Charles River, Sulzfeld) in the age of 8-9 weeks were used. 6 excisional wounds (including the panniculus carnosus) were placed on the back of each animal under ketamin anaesthesia. The animals were treated daily with 3 mg/kg of BI 1356 or methycellulose (1-2%). On day 10 an oral glucose tolerance test (2 g/kg) was performed (0, 30, 60, 90, 120 and 180 min) at the tail tip. Animals were killed under isofluran anaesthesia by cervical dislocation and wounds were excised for histological analysis. Serum was further taken for the detection of DPP-4 activity. Histology was performed in 6-8 μm paraffin embedded and paraformaldehyd fixed cuttings with eosin-hematoxylin staining. Moreover, polymorphonuclear neutrophils (PMN) were identified by immunohistological staining of Ly6G as a robust readout for wound inflammation. (Ref. S. Frank, Methods in Molecular Medicine 2003, Kämpfer, Diabetes 2006)

[3] = system: ob/ob mice; assay: Oral glucose tolerance test in ob/ob mice; assay type: in vivo, mouse; conditions: 3 mg/kg daily, OGTT 2 g/kg on day 10
Description: as §1

[4] = clinical; conditions: human, urine
[5] = Safety and tolerability in people with type 2 diabetes
[6] = Pharmacokinetics of BI 1356 in patients with type 2 diabetes, multiple oral doses once daily for 12 days; conditions: for RA, AUC (accumulation ratio), gMean (gCV) / RA, Cmax (accumulation ratio), gMean (gCV) / feτ, ss, gMean (gCV): steady state (Day 12); for fe0-24, gMean (gCV): type 2 diabetes patients

Structure (SMILES): CC#CCn1c(N2CCC[C@@H](N)C2)nc2c1c(=O)n(Cc1nc(C)c3ccccc3n1)c(=O)n2C [BI 1356, 1-[(4-methyl-quinazolin-2-yl)methyl]-3-methyl-7-(2-butyn-1-yl)-8-(3-(R)-amino-piperidin-1-yl)-xanthine]
- decrease in 2 h postprandial blood glucose excursions [1]: ≥ 80%
- PMN accumulation in wounds (Ly6G immunohistology) [2]: overall reduction of PMN accumulation
- wound morphology and wound re-epithelialization (histology) [2]: profound improvement of wound morphology and wound re-epithelialization
- distance between wound margin epithelia (wound size) ([2]; treated for 12 day, control 2.02±1.07 mm): 0.74±0.90 mm
- reduction of glucose excursion following oral glucose tolerance assay (absolute AUC) [3]: 25%
- CL renal ([4]; oral, 5 mg): ~70 mL/min
- CL renal ([4]; po): 14 to 70 mL/min
- safety and tolerability [5]: placebo-like safety and tolerability
- RA, AUC (accumulation ratio), gMean (gCV) ([6]; 1 mg oral once daily): 2.03 (30.7)
- RA, Cmax (accumulation ratio), gMean (gCV) ([6]; 1 mg oral once daily): 1.44 (25.6)
- feτ, ss, gMean (gCV) ([6]; 1 mg oral once daily): 3.34 (38.3) %
- RA, AUC (accumulation ratio), gMean (gCV) ([6]; 2.5 mg oral once daily): 1.37 (8.2)
- RA, Cmax (accumulation ratio), gMean (gCV) ([6]; 2.5 mg oral once daily): 1.25 (10.6)
- feτ, ss, gMean (gCV) ([6]; 2.5 mg oral once daily): 3.06 (45.1) %
- fe0-24, gMean (gCV) ([6]; 2.5 mg oral once daily): 0.139 (51.2) %
- RA, AUC (accumulation ratio), gMean (gCV) ([6]; 5 mg oral once daily): 1.33 (15.0)
- RA, Cmax (accumulation ratio), gMean (gCV) ([6]; 5 mg oral once daily): 1.33 (30.0)
- feτ, ss, gMean (gCV) ([6]; 5 mg oral once daily): 6.27 (42.2) %
- fe0-24, gMean (gCV) ([6]; 5 mg oral once daily): 0.453 (125)^ %
- RA, AUC (accumulation ratio), gMean (gCV) ([6]; 10 mg oral once daily): 1.18 (23.4)
- RA, Cmax (accumulation ratio), gMean (gCV) ([6]; 10 mg oral once daily): 1.40 (47.7)
- feτ, ss, gMean (gCV) ([6]; 10 mg oral once daily): 3.22 (34.2) %
- fe0-24, gMean (gCV) ([6]; 10 mg oral once daily): 0.919 (115)^ %
- mean accumulation ratio RA,AUC ([6]; doses above 1 mg, once daily oral): ≤ 1.4
- excreted via the kidney ([6]; therapeutic oral dose levels): < 7 % of the administered oral dose
- route of excretion ([6]; therapeutic oral dose levels): primarily excreted unchanged via the bile
